Measurements from patent US20170114021A1, “HALOGEN-SUBSTITUTED COMPOUNDS” (priority 2014, published 2017).

Experiments:
Assay type in all cases: in vivo
Ctenocephalides felis = Ctenocephalides felis in vitro contact test; details: application rate 5 μg/cm^2; adult cat fleas; after 48 h
Procedure: Ctenocephalides felis—In Vitro Contact Test
(§1) For the coating of the test tubes, 9 mg of active compound are first dissolved in 1 ml of acetone p.a. and then diluted to the desired concentration with acetone p.a. 250 μl of the solution are distributed homogeneously on the inner walls and the base of a 25 ml test tube by turning and rocking on an orbital shaker (rocking rotation at 30 rpm for 2 h). With 900 ppm active compound solution and internal surface 44.7 cm^2, given homogeneous distribution, an area-based dose of 5 μg/cm^2 is achieved.
After the solvent has evaporated off, the tubes are populated with 5-10 adult cat fleas (Ctenocephalides felis), sealed with a perforated plastic lid and incubated in a horizontal position at room temperature and ambient humidity. After 48 h, efficacy is determined. To this end, the test tubes are stood upright and the fleas are knocked to the base of the tube. Fleas which remain motionless at the base or move in an uncoordinated manner are considered to be dead or moribund.
100% efficacy means that all the fleas were dead or moribund. 0% efficacy means that no fleas were harmed.

Lucilia cuprina = Lucilia cuprina test (LUCICU); details: application rate 20 ppm; L1 larvae; after 2 days
Procedure: Lucilia cuprina-Test (LUCICU) Solvent: dimethyl sulphoxide
(§2) To produce a suitable preparation of active compound, 10 mg of active compound are mixed with 0.5 ml of dimethyl sulphoxide, and the concentrate is diluted with water to the desired concentration.
About 20 L1 larvae of the Australian sheep blowfly (Lucilia cuprina) are transferred into a test vessel containing minced horsemeat and the active compound preparation of the desired concentration.
After 2 days, the kill in % is determined. 100% means that all the larvae have been killed; 0% means that no larvae have been killed.

Rhipicephalus sanguineus = Rhipicephalus sanguineus in vitro contact test; details: application rate 5 μg/cm^2; adult dog ticks; after 48 h
Procedure: Rhipicephalus sanguineus—In Vitro Contact Tests
as §1
After the solvent has evaporated off, the tubes are populated with 5-10 adult dog ticks (Rhipicephalus sanguineus), sealed with a perforated plastic lid and incubated in a horizontal position in the dark at room temperature and ambient humidity. After 48 h, efficacy is determined. To this end, the ticks are knocked to the floor of the tube and incubated on a hotplate at 45-50° C. for not more than 5 min. Ticks which remain motionless on the floor or move in such an uncoordinated manner that they are unable to deliberately avoid the heat by climbing upwards are considered to be dead or moribund.
An efficacy of 100% means that all the ticks were dead or moribund. 0% efficacy means that none of the ticks had been harmed.

Phaedon cochleariae = Phaedon cochleariae spray test (PHAECO); details: application rate 100 g/ha; Chinese cabbage leaf discs; after 7 days
Procedure: Phaedon cochleariae—Spray Test (PHAECO) Solvent: 78.0 parts by weight of acetone • • 1.5 parts by weight of dimethylformamide Emulsifier: alkylaryl polyglycol ether
To produce a suitable preparation of active compound, 1 part by weight of active compound is dissolved using the specified parts by weight of solvent and made up with water containing an emulsifier concentration of 1000 ppm until the desired concentration is attained. To produce further test concentrations, the preparation is diluted with emulsifier-containing water.
After 7 days, efficacy in % is determined. 100% means that all the beetle larvae have been killed; 0% means that no beetle larvae have been killed.

Musca domestica = Musca domestica test (MUSCDO); details: application rate 20 ppm; adult houseflies; after 2 days
Procedure: Musca domestica-Test (MUSCDO) Solvent: dimethyl sulphoxide
as §2
Vessels containing a sponge treated with sugar solution and the active compound preparation of the desired concentration are populated with 10 adult houseflies (Musca domestica).
After 2 days, the kill in % is determined. 100% means that all of the flies have been killed; 0% means that none of the flies have been killed.

N-{2-fluoro-5-[2′-methyl-5′-(pentafluoroethyl)-4′-(trifluoromethyl)-2′H-1,3′-bipyrazol-4-yl]benzyl}propanamide [Ic-1]
100%: efficacy (Ctenocephalides felis) | efficacy (kill) (Lucilia cuprina) | efficacy (Rhipicephalus sanguineus) | efficacy (Phaedon cochleariae) | efficacy (kill) (Musca domestica)
